{"source": "patent EP0908457B1", "about": "“3-(1,2-benzisothiazol- and isoxazol-5-Y1)-2,4(1H,3H)-pyrimidinedione or thione and 3-(1,2-benzisothiazol- and isoxazol-5-y1)-4(3H)-pyrimidinone or thione herbicidal agents” (BASF AKTIENGESELLSCHAFT, priority 1997, dated 1999)", "key": {"[1]": {"tested_on": "Echinochloa oryzoides (Ard.) Fritsch.", "assay": "Preemergence weed control under flooded paddy conditions, ECHORC (Watergrass (Calif.)); for herbicidal effect rating, ECHORC: meaning of each grade not given here", "assay_type": "in vivo", "settings": "flooded paddy, rated three to four weeks after treatment; for ECHORC herbicidal effect rating: preemergence; for herbicidal effect rating, ECHORC: preemergence weeds"}, "Cyperus iria": {"tested_on": "Cyperus iria", "assay": "Preemergence weed control under flooded paddy conditions, CYPIR (Rice Flatsedge); for herbicidal effect rating, CYPIR: meaning of each grade not given here", "assay_type": "in vivo", "settings": "flooded paddy, rated three to four weeks after treatment; for CYPIR herbicidal effect rating: preemergence; for herbicidal effect rating, CYPIR: preemergence weeds"}, "[2]": {"tested_on": "Cyperus serotinus, Rottb.", "assay": "Preemergence weed control under flooded paddy conditions, CYPSE (Flatsedge); for herbicidal effect rating, CYPSE: meaning of each grade not given here", "assay_type": "in vivo", "settings": "rated three to four weeks after treatment; for CYPSE herbicidal effect rating: preemergence; for herbicidal effect rating, CYPSE: preemergence weeds"}, "[3]": {"tested_on": "Monochoria vaginalis, Presl.", "assay": "Preemergence weed control under flooded paddy conditions, MOOVA (Monochoria); for herbicidal effect rating, MOOVA: meaning of each grade not given here", "assay_type": "in vivo", "settings": "flooded paddy, rated three to four weeks after treatment; for MOOVA herbicidal effect rating: preemergence; for herbicidal effect rating, MOOVA: preemergence weeds"}, "Sagittaria pygmaea, L.": {"tested_on": "Sagittaria pygmaea, L.", "assay": "Preemergence weed control under flooded paddy conditions, SAGPY (Arrowhead (Pygmaea)); for herbicidal effect rating, SAGPY: meaning of each grade not given here", "assay_type": "in vivo", "settings": "flooded paddy, rated three to four weeks after treatment; for SAGPY herbicidal effect rating: preemergence; for herbicidal effect rating, SAGPY: preemergence weeds"}, "[4]": {"tested_on": "Oryza sativa, (L.) Tebonnet", "assay": "Rice tolerance to post-transplant applications under flooded paddy conditions (Example 187), ORYSAT (Rice, Tebonnet)", "settings": "rated three to four weeks after treatment"}}}
{"smiles": "CO/N=C/c1nsc2ccc(-n3c(=O)cc(C(F)(F)F)n(C)c3=O)cc12", "note": "[Example 277, 1,2-Benzisothiazole-3-carboxaldehyde, 5-[3,6-dihydro-3-methyl-2,6-dioxo-4-(trifluoromethyl)-1(2H)-pyrimidinyl]-, 3-(O-methyloxime), (E)-]", "values": [{"measurement": "ECHORC herbicidal effect rating", "setting": "[1]; Rate 0.0320 kg/ha", "result": 7.0}, {"measurement": "ECHORC herbicidal effect rating", "setting": "[1]; Rate 0.0620 kg/ha", "result": 8.6}, {"measurement": "ECHORC herbicidal effect rating", "setting": "[1]; Rate 0.1250 kg/ha", "result": 9.0}, {"measurement": "ECHORC herbicidal effect rating", "setting": "[1]; Rate 0.2500 kg/ha", "result": 9.0}, {"measurement": "ECHORC herbicidal effect rating", "setting": "[1]; Rate 0.5000 kg/ha", "result": 9.0}, {"measurement": "CYPIR herbicidal effect rating", "setting": "Cyperus iria; Rate 0.0320 kg/ha", "result": 9.0}, {"measurement": "CYPIR herbicidal effect rating", "setting": "Cyperus iria; Rate 0.0620 kg/ha", "result": 9.0}, {"measurement": "CYPIR herbicidal effect rating", "setting": "Cyperus iria; Rate 0.1250 kg/ha", "result": 9.0}, {"measurement": "CYPIR herbicidal effect rating", "setting": "Cyperus iria; Rate 0.2500 kg/ha", "result": 9.0}, {"measurement": "CYPIR herbicidal effect rating", "setting": "Cyperus iria; Rate 0.5000 kg/ha", "result": 9.0}, {"measurement": "CYPSE herbicidal effect rating", "setting": "[2]; Rate 0.0320 kg/ha", "result": 2.0}, {"measurement": "CYPSE herbicidal effect rating", "setting": "[2]; Rate 0.0620 kg/ha", "result": 9.0}, {"measurement": "CYPSE herbicidal effect rating", "setting": "[2]; Rate 0.1250 kg/ha", "result": 9.0}, {"measurement": "CYPSE herbicidal effect rating", "setting": "[2]; Rate 0.2500 kg/ha", "result": 9.0}, {"measurement": "CYPSE herbicidal effect rating", "setting": "[2]; Rate 0.5000 kg/ha", "result": 9.0}, {"measurement": "MOOVA herbicidal effect rating", "setting": "[3]; Rate 0.0320 kg/ha", "result": 9.0}, {"measurement": "MOOVA herbicidal effect rating", "setting": "[3]; Rate 0.0620 kg/ha", "result": 9.0}, {"measurement": "MOOVA herbicidal effect rating", "setting": "[3]; Rate 0.1250 kg/ha", "result": 9.0}, {"measurement": "MOOVA herbicidal effect rating", "setting": "[3]; Rate 0.2500 kg/ha", "result": 9.0}, {"measurement": "MOOVA herbicidal effect rating", "setting": "[3]; Rate 0.5000 kg/ha", "result": 9.0}, {"measurement": "SAGPY herbicidal effect rating", "setting": "Sagittaria pygmaea, L.; Rate 0.0320 kg/ha", "result": 6.0}, {"measurement": "SAGPY herbicidal effect rating", "setting": "Sagittaria pygmaea, L.; Rate 0.0620 kg/ha", "result": 8.0}, {"measurement": "SAGPY herbicidal effect rating", "setting": "Sagittaria pygmaea, L.; Rate 0.1250 kg/ha", "result": 9.0}, {"measurement": "SAGPY herbicidal effect rating", "setting": "Sagittaria pygmaea, L.; Rate 0.2500 kg/ha", "result": 9.0}, {"measurement": "SAGPY herbicidal effect rating", "setting": "Sagittaria pygmaea, L.; Rate 0.5000 kg/ha", "result": 9.0}, {"measurement": "ORYSAT herbicidal effect rating", "setting": "[4]; Rate 0.0320 kg/ha", "result": 5.0}, {"measurement": "ORYSAT herbicidal effect rating", "setting": "[4]; Rate 0.0620 kg/ha", "result": 7.0}, {"measurement": "ORYSAT herbicidal effect rating", "setting": "[4]; Rate 0.1250 kg/ha", "result": 7.0}, {"measurement": "ORYSAT herbicidal effect rating", "setting": "[4]; Rate 0.2500 kg/ha", "result": 8.0}, {"measurement": "ORYSAT herbicidal effect rating", "setting": "[4]; Rate 0.5000 kg/ha", "result": 9.0}]}
{"smiles": "C=CCOCc1nsc2ccc(-n3c(=O)cc(C(F)(F)F)n(C)c3=O)cc12", "note": "[Example 196, 3-{3-[(Allyloxy)methyl]-1,2-benzisothiazol-5-yl}-1-methyl-6-(trifluoromethyl)-2,4(1H,3H)-pyrimidinedione]", "values": [{"measurement": "herbicidal effect rating, ECHORC", "setting": "[1]; 0.0313 kg/ha", "result": 0.0}, {"measurement": "herbicidal effect rating, ECHORC", "setting": "[1]; 0.0625 kg/ha", "result": 2.0}, {"measurement": "herbicidal effect rating, ECHORC", "setting": "[1]; 0.1250 kg/ha", "result": 4.0}, {"measurement": "herbicidal effect rating, ECHORC", "setting": "[1]; 0.2500 kg/ha", "result": 4.0}, {"measurement": "herbicidal effect rating, CYPIR", "setting": "Cyperus iria; 0.0313 kg/ha", "result": 0.0}, {"measurement": "herbicidal effect rating, CYPIR", "setting": "Cyperus iria; 0.0625 kg/ha", "result": 0.0}, {"measurement": "herbicidal effect rating, CYPIR", "setting": "Cyperus iria; 0.1250 kg/ha", "result": 1.0}, {"measurement": "herbicidal effect rating, CYPIR", "setting": "Cyperus iria; 0.2500 kg/ha", "result": 4.0}, {"measurement": "herbicidal effect rating, CYPSE", "setting": "[2]; 0.0313 kg/ha", "result": 2.0}, {"measurement": "herbicidal effect rating, CYPSE", "setting": "[2]; 0.0625 kg/ha", "result": 4.0}, {"measurement": "herbicidal effect rating, CYPSE", "setting": "[2]; 0.1250 kg/ha", "result": 6.0}, {"measurement": "herbicidal effect rating, CYPSE", "setting": "[2]; 0.2500 kg/ha", "result": 9.0}, {"measurement": "herbicidal effect rating, MOOVA", "setting": "[3]; 0.0313 kg/ha", "result": 9.0}, {"measurement": "herbicidal effect rating, MOOVA", "setting": "[3]; 0.0625 kg/ha", "result": 9.0}, {"measurement": "herbicidal effect rating, MOOVA", "setting": "[3]; 0.1250 kg/ha", "result": 9.0}, {"measurement": "herbicidal effect rating, MOOVA", "setting": "[3]; 0.2500 kg/ha", "result": 9.0}, {"measurement": "herbicidal effect rating, SAGPY", "setting": "Sagittaria pygmaea, L.; 0.0313 kg/ha", "result": 0.0}, {"measurement": "herbicidal effect rating, SAGPY", "setting": "Sagittaria pygmaea, L.; 0.0625 kg/ha", "result": 0.0}, {"measurement": "herbicidal effect rating, SAGPY", "setting": "Sagittaria pygmaea, L.; 0.1250 kg/ha", "result": 0.0}, {"measurement": "herbicidal effect rating, SAGPY", "setting": "Sagittaria pygmaea, L.; 0.2500 kg/ha", "result": 0.0}, {"measurement": "herbicidal effect rating, ORYSAT (rice tolerance)", "setting": "[4]; 0.0313 kg/ha", "result": 4.0}, {"measurement": "herbicidal effect rating, ORYSAT (rice tolerance)", "setting": "[4]; 0.0625 kg/ha", "result": 6.0}, {"measurement": "herbicidal effect rating, ORYSAT (rice tolerance)", "setting": "[4]; 0.1250 kg/ha", "result": 8.0}, {"measurement": "herbicidal effect rating, ORYSAT (rice tolerance)", "setting": "[4]; 0.2500 kg/ha", "result": 8.0}]}
{"smiles": "Cc1ccc(OCC(=O)NO)c(-c2nsc3ccc(-n4c(=O)cc(C(F)(F)F)n(C)c4=O)cc23)c1", "note": "[Example 313, Acetohydroxamic acid, 2-{{2-{5-[3,6-dihydro-3-methyl-2,6-dioxo-4-(trifluoromethyl)-1(2H)-pyrimidinyl]-1,2-benzisothiazol-3-yl}-p-tolyl}oxy}-]", "values": [{"measurement": "herbicidal effect rating, ECHORC", "setting": "[1]; Rate 0.0320 kg/ha", "result": 4.0}, {"measurement": "herbicidal effect rating, ECHORC", "setting": "[1]; Rate 0.0620 kg/ha", "result": 5.0}, {"measurement": "herbicidal effect rating, ECHORC", "setting": "[1]; Rate 0.1250 kg/ha", "result": 6.0}, {"measurement": "herbicidal effect rating, ECHORC", "setting": "[1]; Rate 0.2500 kg/ha", "result": 9.0}, {"measurement": "herbicidal effect rating, CYPIR", "setting": "Cyperus iria; Rate 0.0320 kg/ha", "result": 0.0}, {"measurement": "herbicidal effect rating, CYPIR", "setting": "Cyperus iria; Rate 0.0620 kg/ha", "result": 0.0}, {"measurement": "herbicidal effect rating, CYPIR", "setting": "Cyperus iria; Rate 0.1250 kg/ha", "result": 9.0}, {"measurement": "herbicidal effect rating, CYPIR", "setting": "Cyperus iria; Rate 0.2500 kg/ha", "result": 9.0}, {"measurement": "herbicidal effect rating, CYPSE", "setting": "[2]; Rate 0.0320 kg/ha", "result": 0.0}, {"measurement": "herbicidal effect rating, CYPSE", "setting": "[2]; Rate 0.0620 kg/ha", "result": 0.0}, {"measurement": "herbicidal effect rating, CYPSE", "setting": "[2]; Rate 0.1250 kg/ha", "result": 0.0}, {"measurement": "herbicidal effect rating, CYPSE", "setting": "[2]; Rate 0.2500 kg/ha", "result": 2.0}, {"measurement": "herbicidal effect rating, MOOVA", "setting": "[3]; Rate 0.0320 kg/ha", "result": 0.0}, {"measurement": "herbicidal effect rating, MOOVA", "setting": "[3]; Rate 0.0620 kg/ha", "result": 9.0}, {"measurement": "herbicidal effect rating, MOOVA", "setting": "[3]; Rate 0.1250 kg/ha", "result": 9.0}, {"measurement": "herbicidal effect rating, MOOVA", "setting": "[3]; Rate 0.2500 kg/ha", "result": 9.0}, {"measurement": "herbicidal effect rating, SAGPY", "setting": "Sagittaria pygmaea, L.; Rate 0.0320 kg/ha", "result": 0.0}, {"measurement": "herbicidal effect rating, SAGPY", "setting": "Sagittaria pygmaea, L.; Rate 0.0620 kg/ha", "result": 0.0}, {"measurement": "herbicidal effect rating, SAGPY", "setting": "Sagittaria pygmaea, L.; Rate 0.1250 kg/ha", "result": 0.0}, {"measurement": "herbicidal effect rating, SAGPY", "setting": "Sagittaria pygmaea, L.; Rate 0.2500 kg/ha", "result": 3.0}, {"measurement": "herbicidal effect rating ORYSAT", "setting": "[4]; Rate 0.0320 kg/ha", "result": 0.0}, {"measurement": "herbicidal effect rating ORYSAT", "setting": "[4]; Rate 0.0620 kg/ha", "result": 1.0}, {"measurement": "herbicidal effect rating ORYSAT", "setting": "[4]; Rate 0.1250 kg/ha", "result": 3.0}, {"measurement": "herbicidal effect rating ORYSAT", "setting": "[4]; Rate 0.2500 kg/ha", "result": 4.0}]}
